Literature values as cited in patent US20170216273A1, “Nicotine Derivatives and Methods of Use” (priority 2014, published 2017).

Conditions: approximately; no test described

Compound	potency relative to the L isomer
CN1CCC[C@H]1c1cccnc1 (racemic) [Racemic nicotine]	70-80 % of the L isomer's potency
CN1CCC[C@@H]1c1cccnc1 (single isomer, unassigned) [D isomer of nicotine, D-nicotine]	25-30 % of the L isomer's potency
